Consider six compounds from US20260176320A1, “MODULATORS OF G-PROTEIN COUPLED RECEPTORS” (priority 2018, published 2026).

The target in one test is GLP-1R (Homo sapiens, UniProt P43220). Briefly: HitHunter cAMP assay (GLP-1R). It is filed as cell-based. As to conditions: for Emax: read-out: (Emax) GLP-1R. Summed up: (§1)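 Agonist stimulation lasts 30 min at room temperature on 10,000 cells per well, with phosphodiesterase blocked by 625 μM IBMX. Accumulated cAMP is quantified by competitive antibody luminescence after overnight development.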
Sequence of GLP-1R (P43220 24-463): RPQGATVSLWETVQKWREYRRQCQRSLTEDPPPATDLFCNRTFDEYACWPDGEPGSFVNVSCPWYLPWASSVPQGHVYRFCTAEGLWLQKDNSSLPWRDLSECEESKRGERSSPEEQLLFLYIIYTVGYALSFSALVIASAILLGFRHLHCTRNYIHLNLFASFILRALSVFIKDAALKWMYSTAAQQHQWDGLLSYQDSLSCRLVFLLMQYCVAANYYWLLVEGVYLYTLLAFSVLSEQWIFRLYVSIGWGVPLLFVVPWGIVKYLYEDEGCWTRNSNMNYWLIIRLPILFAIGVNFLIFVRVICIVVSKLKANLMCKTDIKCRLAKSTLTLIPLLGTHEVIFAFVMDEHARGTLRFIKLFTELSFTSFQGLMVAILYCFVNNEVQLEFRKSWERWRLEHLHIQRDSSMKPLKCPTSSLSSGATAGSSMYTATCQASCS
(In general: Cyclic AMP is a second messenger, typically raised through Gs and lowered through Gi signalling.)

The next test addresses T1, GIP-R (Homo sapiens, UniProt P48546).
T1 sequence (P48546 22-466): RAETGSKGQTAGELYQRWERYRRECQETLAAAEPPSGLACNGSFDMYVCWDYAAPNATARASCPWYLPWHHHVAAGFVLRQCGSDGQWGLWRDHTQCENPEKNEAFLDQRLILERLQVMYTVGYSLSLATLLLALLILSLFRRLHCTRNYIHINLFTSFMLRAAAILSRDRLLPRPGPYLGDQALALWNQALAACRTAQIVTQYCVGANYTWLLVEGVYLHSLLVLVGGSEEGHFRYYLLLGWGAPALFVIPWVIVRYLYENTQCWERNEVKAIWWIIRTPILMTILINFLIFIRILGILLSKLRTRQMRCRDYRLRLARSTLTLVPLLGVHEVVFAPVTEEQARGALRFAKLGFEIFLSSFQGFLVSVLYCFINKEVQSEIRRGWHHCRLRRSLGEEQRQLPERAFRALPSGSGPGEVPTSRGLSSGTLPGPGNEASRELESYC
As to the kind of experiment: HitHunter cAMP assay (GIP-R). Type of test: cell-based. As to conditions: for Emax: read-out: (Emax) GIP-R. Summed up:
as §1

Where [1] appears, read: Table 3, cAMP, read-out: EC50 GLP-1R/nM.
The mark [2] stands for this setting: Table 3A, cAMP, read-out: EC50 GLP-1R/nM.
Where [3] appears, read: Table 3, cAMP, read-out: EC50 GIP-R/nM.
Where [4] appears, read: Table 3A, cAMP, read-out: EC50 GIP-R/nM.

Like-named read-outs stand apart in the source and are kept apart here. Numbered stars: 1 amine (or outer) side, 2 acyl side, 3 side chain; on linkers, the order of the positions; unused ones are H or OH. Square brackets hold non-standard residues; d marks the D form. Side chains are listed from the residue outwards. Peptide text beside a SMILES is read from it. * marks the point of attachment. γGlu = O=C(O)[C@H](CCC(=O)[*:2])N[*:1]; X2 = O=C(CSCC(=O)*)NCCN1C(=O)CSC1=O; Palmitoyl = CCCCCCCCCCCCCCCC(=O)*; Aib = CC(C)(N)C(=O)O

In the case of `CCCCCCCCCCCCCCCC(=O)NCCCC[C@H](NC(=O)[C@H](CO)NC(=O)[C@@H]1CCCN1C(=O)[C@@H]1CCCN1C(=O)[C@@H]1CCCN1C(=O)[C@H](C)NC(=O)CNC(=O)[C@H](CO)NC(=O)[C@H](CO)NC(=O)[C@@H]1CCCN1C(=O)CNC(=O)CNC(=O)[C@H](C)NC(=O)[C@H](CC(C)C)NC(=O)[C@H](CC(C)C)NC(=O)[C@H](Cc1c[nH]c2ccccc12)NC(=O)[C@H](CC(N)=O)NC(=O)[C@@H](NC(=O)[C@H](Cc1ccccc1)NC(=O)[C@H](CCC(=O)O)NC(=O)C(C)(C)NC(=O)[C@H](C)NC(=O)[C@H](C)NC(=O)[C@H](CCC(N)=O)NC(=O)[C@H](CCCCN)NC(=O)[C@H](CC(=O)O)NC(=O)[C@H](CC(C)C)NC(=O)[C@H](Cc1ccc(O)cc1)NC(=O)[C@@H](NC(=O)[C@H](CO)NC(=O)[C@H](Cc1ccc(O)cc1)NC(=O)[C@H](CC(=O)O)NC(=O)[C@H](CO)NC(=O)[C@@H](NC(=O)[C@H](Cc1ccccc1)NC(=O)[C@@H](NC(=O)CNC(=O)[C@H](CCC(=O)O)NC(=O)CSCC(=O)NCCN1C(=O)CSC1=O)[C@@H](C)O)[C@@H](C)O)[C@@H](C)CC)C(C)C)C(=O)O` [Compound 56], the Emax (as a rule, the greatest response seen or fitted, relative to the assay's reference) at GLP-1R (Table 3, cAMP) is 110%; at GLP-1R (Table 3A, cAMP), 110%; on GIP-R (Table 3, cAMP), 60%; on GIP-R (Table 3A, cAMP), 60%. Besides, the EC50 at GLP-1R (setting [1]) was 0.1 to 1 nM; at GLP-1R (setting [2]), 0.1 to 1 nM; on GIP-R (setting [3]) it was 1 to 10 nM; on GIP-R (setting [4]), 1 to 10 nM.

On to `CCCCCCCCCCCCCCCC(=O)N[C@@H](CCC(=O)NCCCC[C@H](NC(=O)[C@H](CC(=O)O)NC(=O)[C@H](CO)NC(=O)[C@@H](NC(=O)[C@H](Cc1ccccc1)NC(=O)[C@@H](NC(=O)CNC(=O)[C@H](CCC(=O)O)NC(=O)CSCC(=O)NCCN1C(=O)CSC1=O)[C@@H](C)O)[C@@H](C)O)C(=O)N[C@@H](CO)C(=O)N[C@H](C(=O)N[C@@H](Cc1ccc(O)cc1)C(=O)N[C@@H](CC(C)C)C(=O)N[C@@H](CC(=O)O)C(=O)N[C@@H](CCCCN)C(=O)N[C@@H](CCC(N)=O)C(=O)N[C@@H](C)C(=O)N[C@@H](C)C(=O)NC(C)(C)C(=O)N[C@@H](CCC(=O)O)C(=O)N[C@@H](Cc1ccccc1)C(=O)N[C@H](C(=O)N[C@@H](CC(N)=O)C(=O)N[C@@H](Cc1c[nH]c2ccccc12)C(=O)N[C@@H](CC(C)C)C(=O)N[C@@H](CC(C)C)C(=O)N[C@@H](C)C(=O)NCC(=O)NCC(=O)N1CCC[C@H]1C(=O)N[C@@H](CO)C(=O)N[C@@H](CO)C(=O)NCC(=O)N[C@@H](C)C(=O)N1CCC[C@H]1C(=O)N1CCC[C@H]1C(=O)N1CCC[C@H]1C(=O)N[C@@H](CO)C(=O)N[C@@H](CCCCN)C(N)=O)C(C)C)[C@@H](C)CC)C(=O)O` [Compound 201] (X2-EGTFTSDK([γGlu-Palmitoyl])SIYLDKQAA[Aib]EFVNWLLAGGPSSGAPPPSK-NH2), for which the Emax is 99% on GLP-1R (Table 3A, cAMP) and 105% on GIP-R (Table 3A, cAMP). Moreover, the EC50 at GLP-1R (setting [2]) and on GIP-R (setting [4]) was 1 to 10 nM in each case.

In the case of `CCCCCCCCCCCCCCCC(=O)N[C@@H](CCC(=O)NCCCC[C@H](NC(=O)[C@H](CO)NC(=O)[C@@H]1CCCN1C(=O)[C@@H]1CCCN1C(=O)[C@@H]1CCCN1C(=O)[C@H](C)NC(=O)CNC(=O)[C@H](CO)NC(=O)[C@H](CO)NC(=O)[C@@H]1CCCN1C(=O)CNC(=O)CNC(=O)[C@H](C)NC(=O)[C@H](CC(C)C)NC(=O)[C@H](CC(C)C)NC(=O)[C@H](Cc1c[nH]c2ccccc12)NC(=O)[C@H](CC(N)=O)NC(=O)[C@@H](NC(=O)[C@H](Cc1ccccc1)NC(=O)[C@H](CCC(=O)O)NC(=O)C(C)(C)NC(=O)[C@H](C)NC(=O)[C@H](C)NC(=O)[C@H](CCC(N)=O)NC(=O)[C@H](CCCCN)NC(=O)[C@H](CC(=O)O)NC(=O)[C@H](CC(C)C)NC(=O)[C@H](Cc1ccc(O)cc1)NC(=O)[C@@H](NC(=O)[C@H](CO)NC(=O)[C@H](Cc1ccc(O)cc1)NC(=O)[C@H](CC(=O)O)NC(=O)[C@H](CO)NC(=O)[C@@H](NC(=O)[C@H](Cc1ccccc1)NC(=O)[C@@H](NC(=O)CNC(=O)[C@H](CCC(=O)O)NC(=O)CSCC(=O)NCCN1NCCC1=O)[C@@H](C)O)[C@@H](C)O)[C@@H](C)CC)C(C)C)C(N)=O)C(=O)O` [Compound 58], the Emax at GLP-1R (Table 3, cAMP) was determined as 108%; at GLP-1R (Table 3A, cAMP), 108%; at GIP-R (Table 3, cAMP) it was 26%; at GIP-R (Table 3A, cAMP) it was 26%. The EC50 on GLP-1R (setting [1]) is 0.1 to 1 nM; at GLP-1R (setting [2]), 0.1 to 1 nM; on GIP-R (setting [3]), 1 to 10 nM; on GIP-R (setting [4]), 10 to 100 nM.

Take `CCCCCCCCCCCCCCCC(=O)N[C@@H](CCC(=O)NCCCC[C@H](NC(=O)[C@H](CO)NC(=O)[C@@H]1CCCN1C(=O)[C@@H]1CCCN1C(=O)[C@@H]1CCCN1C(=O)[C@H](C)NC(=O)CNC(=O)[C@H](CO)NC(=O)[C@H](CO)NC(=O)[C@@H]1CCCN1C(=O)CNC(=O)CNC(=O)[C@H](C)NC(=O)[C@H](CC(C)C)NC(=O)[C@H](CC(C)C)NC(=O)[C@H](Cc1c[nH]c2ccccc12)NC(=O)[C@H](CC(N)=O)NC(=O)[C@@H](NC(=O)[C@H](Cc1ccccc1)NC(=O)[C@H](CCC(=O)O)NC(=O)C(C)(C)NC(=O)[C@H](C)NC(=O)[C@H](C)NC(=O)[C@H](CCC(N)=O)NC(=O)[C@H](CCCCN)NC(=O)[C@H](CC(=O)O)NC(=O)[C@H](CC(C)C)NC(=O)[C@H](Cc1ccc(O)cc1)NC(=O)[C@@H](NC(=O)[C@H](CO)NC(=O)[C@H](Cc1ccc(O)cc1)NC(=O)[C@H](CC(=O)O)NC(=O)[C@H](CO)NC(=O)[C@@H](NC(=O)[C@H](Cc1ccccc1)NC(=O)[C@@H](NC(=O)CNC(=O)[C@H](CCc1nn[nH]n1)NC(=O)CSCC(=O)NCCN1CCCCC1=O)[C@@H](C)O)[C@@H](C)O)[C@@H](C)CC)C(C)C)C(N)=O)C(=O)O` [Compound 221]: the Emax on GLP-1R (Table 3A, cAMP) turned out to be 95%; on GIP-R (Table 3A, cAMP) it was 68%. Also, the EC50 at GLP-1R (setting [2]) and at GIP-R (setting [4]) was 1 to 10 nM throughout.

With `CCCCCCCCCCCCCCCC(=O)N[C@@H](CCC(=O)NCCCC[C@H](NC(=O)[C@H](CO)NC(=O)[C@@H]1CCCN1C(=O)[C@@H]1CCCN1C(=O)[C@@H]1CCCN1C(=O)[C@H](C)NC(=O)CNC(=O)[C@H](CO)NC(=O)[C@H](CO)NC(=O)[C@@H]1CCCN1C(=O)CNC(=O)CNC(=O)[C@H](C)NC(=O)[C@H](CC(C)C)NC(=O)[C@H](CC(C)C)NC(=O)[C@H](Cc1c[nH]c2ccccc12)NC(=O)[C@H](CC(N)=O)NC(=O)[C@@H](NC(=O)[C@H](Cc1ccccc1)NC(=O)[C@H](CCC(=O)O)NC(=O)C(C)(C)NC(=O)[C@H](C)NC(=O)[C@H](C)NC(=O)[C@H](CCC(N)=O)NC(=O)[C@H](CCCCN)NC(=O)[C@H](CC(=O)O)NC(=O)[C@H](CC(C)C)NC(=O)[C@H](Cc1ccc(O)cc1)NC(=O)[C@@H](NC(=O)[C@H](CO)NC(=O)[C@H](Cc1ccc(O)cc1)NC(=O)[C@H](CC(=O)O)NC(=O)[C@H](CO)NC(=O)[C@@H](NC(=O)[C@H](Cc1ccccc1)NC(=O)[C@@H](NC(=O)CNC(=O)[C@H](CCC(=O)O)NC(=O)CSCC(=O)NCCN1C(=O)C[C@@H](OC)C1=O)[C@@H](C)O)[C@@H](C)O)[C@@H](C)CC)C(C)C)C(N)=O)C(=O)O` [Compound 48], the EC50 on GLP-1R (EC50 GLP-1R/nM, Table 3, cAMP) lay within 0.1 to 1 nM; on GLP-1R (EC50 GLP-1R/nM, Table 3A, cAMP), 0.1 to 1 nM; on GIP-R (EC50 GIP-R/nM, Table 3, cAMP) it was 0.1 to 1 nM; on GIP-R (EC50 GIP-R/nM, Table 3A, cAMP) it was 0.1 to 1 nM. The Emax is 104% at GLP-1R (Table 3, cAMP); 104% on GLP-1R (Table 3A, cAMP); 65% on GIP-R (Table 3, cAMP); 65% at GIP-R (Table 3A, cAMP).

Consider `CC[C@H](C)[C@H](NC(=O)[C@H](CO)NC(=O)[C@H](Cc1ccc(O)cc1)NC(=O)[C@H](CC(=O)O)NC(=O)[C@H](CO)NC(=O)[C@@H](NC(=O)[C@H](Cc1ccccc1)NC(=O)[C@@H](NC(=O)CNC(=O)[C@H](CCC(=O)O)NC(=O)CSCC(=O)NCCn1ccc(C(F)(F)F)cc1=O)[C@@H](C)O)[C@@H](C)O)C(=O)N[C@@H](Cc1ccc(O)cc1)C(=O)N[C@@H](CC(C)C)C(=O)N[C@@H](CC(=O)O)C(=O)N[C@@H](CCCCN)C(=O)N[C@@H](CCC(N)=O)C(=O)N[C@@H](C)C(=O)N[C@@H](C)C(=O)NC(C)(C)C(=O)N[C@@H](CCC(=O)O)C(=O)N[C@@H](Cc1ccccc1)C(=O)N[C@H](C(=O)N[C@@H](CC(N)=O)C(=O)N[C@@H](Cc1c[nH]c2ccccc12)C(=O)N[C@@H](CC(C)C)C(=O)N[C@@H](CC(C)C)C(=O)N[C@@H](C)C(=O)NCC(=O)NCC(=O)N1CCC[C@H]1C(=O)N[C@@H](CO)C(=O)N[C@@H](CO)C(=O)NCC(=O)N[C@@H](C)C(=O)N1CCC[C@H]1C(=O)N1CCC[C@H]1C(=O)N1CCC[C@H]1C(=O)N[C@@H](CO)C(=O)N[C@@H](CCCCN)C(N)=O)C(C)C` [Compound 121], for which the Emax on GLP-1R stood at 90%; at GIP-R it was 27%.
